Assays:
[1] = tested on: heparinized anticoagulated blood; test: Reversal of heparin anticoagulation to form viable cultured blood clots; type: cell-based; details: 4 hours at 37° C.; chitosan 99% DDA, 3 kDa or 10 kDa
From the text: The degree of deacetylation is preferably from 90% to 100% and the molecular weight is preferably at least 3,000 Da and at most 500,000 Da.

cultured blood clots = test: sLox-1 shedding into cultured clot serum (ELISA); type: cell-based, human; details: cultured clot 4 h, 37° C., vs cultured clot without additive, 100 ng/mL LPS, 10 mM bGP
From the text: This is the enabling data for beta glycerol phosphate and PMA treated blood clots.
Parallel analysis of IL-8/CXCL8 in the cultured clot serum can be used to document test article cytocompatibility. The absence of IL6 in donor fresh blood can be used to verify there is no sepsis or bacteremia, and lack of IL-6 induction in the cultured clot serum can be used to identify sterile inflammation and test article purity (lack of endotoxin response).
In an embodiment, cultured clots were spiked with LPS by injecting an LPS solution into the vacutainer tube immediately after blood collection and before clot formation. These LPS/cultured clots shed even more sLox-1 into the serum than the paired cultured clots without LPS, in line with the known effect of LPS and downstream mediators (TNF, IL1A) in stimulating Lox-1 expression. (FIG. 2).
In an embodiment, a precision medicine tool is developed that detects Lox-1 induction in an ex vivo thrombus and shedding of soluble Lox-1 (sLox-1) into the serum. The tool consists of a red vacutainer tube with as little as 0.5 mL and more ideally 3 or 4 mL of peripheral whole venous blood, that is placed for 4 hours at 37° C.
The optimized cultured clot system involves placing a red cap vacutainer tube with anionic clot-activator at 37° C. for 4 hours after which serum may be collected. Serum contains a mixture of barrier-reducing and barrier-enhancing factors.

cultured clots [2] = test: RT-PCR of transcript levels in cultured clots; type: cell-based, human; details: cultured clot 4 h, 37° C.
Protocol: Lanes: 1. Fresh whole blood (PAXgene); 2. Fresh blood clot (45 min, RT); 3. Cultured clot (4 h, 37° C.); 4. LPS/cultured clot (4 h, 37° C.); 5. Beta-glycerol phosphate cultured clot (4 h, 37° C.); 6. Cultured heparin blood (4 h, 37° C.). OLR1 was induced in all cultured clots (4) and in all cultured clots+LPS ([…]).

cultured clots [3] = test: CXCL8/IL-8 and IL-6 protein in cultured clot serum; type: cell-based, human; details: cultured clot 4 h, 37° C.; for CXCL8/IL-8 protein in cultured clot serum: +100 ng/mL LPS or +10 mM bGP
Protocol: [Key: FB: fresh blood plasma, cC: cultured clot (4 h, 37° C.), Norm: cultured clot under Normoxia, Hyp: cultured clot under Hypoxia, Hep: heparin blood culture (4 h, 37° C.), +LPS: +100 ng/mL lipopolysaccharide, +bGP: +10 mM disodium beta glycerol phosphate].

endothelial cells = details: other studies; cited from earlier work
sLox-1 shedding by cells = details: previous studies; cited from earlier work
cultured clots [4] = test: Neutrophil elastase (NE) release to cultured clot serum; type: cell-based, human; details: cultured clot 4 h 37° C.; +10 mM bGP
Protocol: FB=fresh blood; FC=fresh clot ([…] RT incubation); cC=cultured clot (4 h 37° C.; +LPS=cC+100 ng/mL LPS; +bGP=cC+10 mM bGP. This is enabling data for using the cultured clot system to screen drugs for the ability to inhibit neutrophil degranulation in an assay that uses minimally modified whole blood, by measuring the level of NE and/or PR3, or other granule factors (myeloperoxidase, cathepsin G, elastase, metalloproteinases, defensins) in treated versus untreated cultured clot serum.

HPAEC = test: TER assay of endothelial barrier function; type: cell-based, human
From the text: In FIG. 28 TER assay with HPAEC treated with 0.2 U/mL thrombin, 10% fresh serum, 10% cultured clot serum or 10% LPS/cultured clot serum produced by peripheral blood collected from 4 healthy donors (N=2 tests per condition for donors 1 and 2 and N=1 test per condition for combined samples from donors 3 and 4). Mean ±standard deviation (N=4 thrombin and N=5 for all other conditions).

[5] = tested on: HEK293 human Lox-1 overexpression system; test: sLox-1 production in HEK293 human Lox-1 overexpression system; type: cell-based
From the text: Thrombin, for example, had no effect on sLox-1 production in our HEK293 human Lox-1 overexpression system. The enzymes responsible for sLox-1 shedding are under intense debate and not yet identified in neutrophils. Close scrutiny of PR3 leads hypothesize it is a novel neutrophil-specific sheddase of sLox-1. PR3 is harbored in azurophilic and secretory granules of neutrophils. Upon release, PR3 associates with the neutrophil cell surface via CD177 in cholesterol-rich lipid rafts where Lox-1 is located. PR3 activity is believed to preserve endothelial barrier function during neutrophil extravasation. […] One study used trypsin digestion during sample preparation. The proposed sLox-1 cleavage motif is missing an aliphatic P1′ residue used by ADAM10 and ADAM17 to recognize a substrate. By contrast, the human Lox-1 cleavage region (QISA87R88QQA) has a very striking match with the PR3 cleavage site in IL-8 (AVLPRSA↓RKEL). […] (Table 5). The published cleavage sites for sLox-1 in bovine and human produce a non-conserved sLox-1 N-terminus, with NH2-Glutamine for human and NH2-Serine for bovine (Table 5). […] Potentially harmful bystander elastase activity of PR3 [73] could be suppressed by high levels of alpha-1 antitrypsin or ceruloplasmin that we detected by LC-MS in plasma and serum.

Q: For protamine, which “reversal of heparin anticoagulation, forming viable cultured blood clots” value [1] is on record?
A: reverse heparin anticoagulation

Q: For lipopolysaccharide [LPS], which “sLox-1 shedding into cultured clot serum” value (cultured blood clots) is on record?
A: increased

Q: What about the “IL6 expression (RT-PCR)” value (cultured clots [2]) of the same compound?
A: induced

Q: What about the “IL-6 protein in cultured clot serum” value (cultured clots [3]; +100 ng/mL LPS) of the same compound?
A: elevated

Q: And the “CXCL8/IL-8 protein in cultured clot serum” value (cultured clots [3])?
A: elevated

Q: With CC(C)c1nc(N(C)S(C)(=O)=O)nc(-c2ccc(F)cc2)c1/C=C/[C@@H](O)C[C@@H](O)CC(=O)O [rosuvastatin] as the compound, how does the “Lox-1 expression in endothelial cells” value (endothelial cells) read?
A: inhibited Lox-1 expression

Q: For CC(C)C[C@H](CC(=O)NO)C(=O)N[C@@H](Cc1ccc2ccccc2c1)C(=O)N[C@@H](C)C(=O)NCCN [TAPI-1], which “sLox-1 shedding by exposed cells” value (sLox-1 shedding by cells) is on record?
A: reduced sLox-1 shedding

Q: For CCCCCCCCCCCCCC(=O)O[C@@H]1[C@@H](C)[C@@]2(O)[C@@H](C=C(CO)C[C@]3(O)C(=O)C(C)=C[C@@H]23)[C@@H]2C(C)(C)[C@]12OC(C)=O [PMA, phorbol myristate acetate], which “sLox-1 shedding into cultured clot serum” value (cultured blood clots) is on record?
A: enhanced

Q: With O=S(=O)(F)Cc1ccccc1 [PMSF, phenylmethylsulfonyl fluoride] as the compound, how does the “sLox-1 shedding by exposed cells” value (sLox-1 shedding by cells) read?
A: reduced sLox-1 shedding

Q: With O=P([O-])([O-])OC(CO)CO.[Na+].[Na+] [bGP, disodium beta glycerol phosphate] as the compound, how does the “sLox-1 shedding into cultured clot serum” value (cultured blood clots) read?
A: suppressed

Q: And the “sLox-1 shedding into cultured clot serum” value (cultured blood clots; listed as phosphatase inhibitor)?
A: inhibited

Q: And the “CXCL8/IL-8 expression (RT-PCR)” value (cultured clots [2]; 10 mM)?
A: without suppressing

Q: What about the “TNF expression (RT-PCR)” value (cultured clots [2]; 10 mM) of the same compound?
A: specifically suppressed

Q: What about the “CXCL8/IL-8 protein in cultured clot serum” value (cultured clots [3]) of the same compound?
A: does not alter

Q: And the “neutrophil elastase (NE) release to serum” value (cultured clots [4])?
A: inhibited

Q: What does the source list for thrombin?
A: effect on endothelial barrier function (HPAEC; 0.6 hours post-stimulation, vs control, fresh serum): transient loss of barrier function; mean normalized resistance at 36 min (HPAEC; HPAEC, 10% serum or 0.2 U/mL thrombin, 36 min, mean ± SD): 0.48±0.03; sLox-1 production [5]: no effect

Reference: patent US20240158465A1, “METHOD FOR INDUCING AND DETECTING SOLUBLE LOX-1 (sLOX-1) IN CULTURED BLOOD CLOTS” (GEORGE MASON UNIVERSITY, priority 2022, published 2024)
